# Measurements as given in patent US20220288077A1, “PROSTATITIS TREATMENT” (NATIONAL INSTITUTE OF BIOLOGICAL SCIENCES, priority 2019, published 2022).
# How the values were obtained:
# [1] = test system: carrageenan-induced rat prostatitis model; experiment: Carrageenan-induced rat prostatitis model: prostate weight assessment (prostate index); format: in vivo; conditions: for prostate index (ratio of prostate gland wet weight/body weight): seven days after carrageenan, model group 2.15±0.30 mg/g
# Text: (§1) Adult male Sprague-Dawley rats (250-350 g body weight) were used for the experiments. All animals were acclimated for 1 week before any experimental procedures.
# (§2) All the SD rats were randomly divided into different groups (n=8-10): control group, model group, and compounds-treated groups. For injection of carrageenan or saline, rats were anesthetized with 4% chloral hydrate and were fixed in a supine position. Then, the lower abdomen above the penis of rats was shaved and the skin in this area sterilized using 3 applications of 75% medical alcohol. A small midline incision was made in the sterile area, then the bladder and the prostate carefully exposed. With a 30-gauge needle, 50 ul sterile suspension of 3% carrageenan (Sigma, MO, USA) or saline (sham group) was injected into both right and left ventral lobes of the prostate gland. Different doses of RIPA-56 (12.5 mg/kg, 25 mg/kg, IP) or Finasteride (5 mg/kg, PO) were administrated to rats before (−17 min) and after (once every 12 h) carrageenan injection. While an equal amount of solvents were intraperitoneally and orally injected to control rats.
# Seven days after carrageenan injection, rats were sacrificed and the prostates were harvested. Ventral and dorsolateral lobes of prostate glands were removed by cutting the ducts at the urethral connection and weighed immediately after removal. The prostate index (ratio of prostate gland wet weight/body weight) was calculated.
# [2] = test system: carrageenan-induced male rat prostate disease model; experiment: Carrageenan-induced male rat prostate disease model: representative RIP1, RIP3 and MLKL inhibitors; format: in vivo; conditions: list after the methods of the example; protocols based on RIPA-56
# Method: Experimental protocols for the compounds of Table 1 were based on those used for RIPA-56. Each inhibitor was intraperitoneally or orally administrated to rat before carrageenan treatment, at the dose of 20 mg/kg to 100 mg/kg.
# Each inhibitor was intraperitoneally or orally administrated to rat before carrageenan treatment, at the dose of 20 mg/kg to 100 mg/kg.
# as §2, with “Then, the lower abdomen above the penis of rats was shaved and the skin in this area sterilized using 3 applications of 75% medical alcohol.” left out, “Different doses of RIPA-56 (12.5 mg/kg, 25 mg/kg, IP) or Finasteride (5 mg/kg, PO) were administrated to rats before (−17 min) and after (once every 12 h) carrageenan injection.” left out
# rat EAP model = conditions: cited from earlier work
# aged mice = conditions: seminal vesicles, seminiferous tubules, sperm production, reproductive capacity; cited from earlier work
# TNFα = experiment: Carrageenan-induced rat prostatitis model: TNFα in prostate homogenate (ELISA); format: in vivo; conditions: 25 mg/kg intraperitoneal B.I.D; per mg prostate homogenate protein; model 3.04±2.28, sham 0.52±0.26
# Text: as §1
# as §2, with “Different doses of RIPA-56 (12.5 mg/kg, 25 mg/kg, IP) or Finasteride (5 mg/kg, PO) were administrated to rats before (−17 min) and after (once every 12 h) carrageenan injection. While an equal amount of solvents were intraperitoneally and orally injected to control rats.” left out
# Part of rat prostate were weighed, mixed with cell lysis buffer (500 μl buffer per 100 mg tissue) and homogenized using FastPrep-24 homogenizer (MP Biomedicals). […] The supernatant was collected, and the total protein concentration was measured with the Bradford protein assay method. […] The level of cytokines was determined using rat TNFα, IL-1β and IL-6 ELISA kit (Biolegend or ProteinTech), and normalized to prostate protein concentration.
# [3] = test system: carrageenan-induced rat prostatitis model; experiment: Carrageenan-induced rat prostatitis model: histological analysis of prostate (H & E); format: in vivo; conditions: FIG. 1 C
# Text: as §1
# as §2, with “While an equal amount of solvents were intraperitoneally and orally injected to control rats.” left out
# For histological analysis, one part of the prostate was fixed in 10% neutral buffered formalin for 24 h, dehydrated in ethanol, cleared in xylene, and embedded in paraffin blocks. […] Each slide was evaluated randomly in 3 different areas by an independent investigator unaware of the animal grouping using a microscope.
compound,measurement,setting,value
CC(C)(C)NC(=O)[C@H]1CC[C@H]2[C@@H]3CC[C@H]4NC(=O)C=C[C@]4(C)[C@H]3CC[C@]12C [finasteride],decrease of the prostate index of carrageenan-treated rats,[1]; 5 mg/kg orally B.I.D,23%
"Cn1c(=O)c2c(nc(S(C)(=O)=O)n2C)n(CC#Cc2cccc(O)c2)c1=O [TC13-172, 3-(3-(3-hydroxyphenyl)prop-2-yn-1-yl)-1,7-dimethyl-8-(methylsulfonyl)-3,7-dihydro-1H-purine-2,6-dione]",listed under heading Active MLKL Inhibitors,[2],Active
"Cn1c(=O)c2c(nc(S(=O)(=O)CC3CC3)n2C)n(CC#Cc2cccc(Cl)c2)c1=O [TC13-119, 3-(3-(3-chlorophenyl)prop-2-yn-1-yl)-8-((cyclopropylmethyl)sulfonyl)-1,7-dimethyl-3,7-dihydro-1H-purine-2,6-dione]",listed under heading Active MLKL Inhibitors,[2],Active
"CCC(C)(C)C(=O)N(O)Cc1cc(F)c(F)c(F)c1 [N-Hydroxy-2,2-dimethyl-N-(3,4,5-trifluorobenzyl)butanamide]",listed under heading Active RIP1 Inhibitors,[2],Active
"O=c1c2c3c(sc2ncn1Cc1ccccc1)CCC3 [3-benzyl-6,7-dihydro-3H-cyclopenta[4,5]thieno[2,3-d]pyrimidin-4(5H)-one]",listed under heading Active RIP1 Inhibitors,[2],Active
"CC(C)S(=O)(=O)c1ccc2nccc(Nc3ccc4scnc4c3)c2c1 [GSK'872, N-(6-(isopropylsulfonyl)quinolin-4-yl)benzo[d]thiazol-5-amine]",listed under heading Active RIP3 Inhibitors,[2],Active
"Cc1cc(-c2cnc(N)c3c(-c4ccc5scnc5c4)csc23)n(C)n1 [GSK'843, 3-(benzo[d]thiazol-5-yl)-7-(1,3-dimethyl-1H-pyrazol-5-yl)thieno[3,2-c]pyridin-4-amine]",listed under heading Active RIP3 Inhibitors,[2],Active
"CCC(C)(C)C(=O)N(O)Cc1cc(F)cc(F)c1F [N-Hydroxy-2,2-dimethyl-N-(2,3,5-trifluorobenzyl)butanamide]",listed under heading Active RIP1 Inhibitors,[2],Active
"C=CC(C)(C)C(=O)N1C(=O)C[C@H]1c1ccccc1 [(S)-1-(2,2-dimethylbut-3-enoyl)-4-phenylazetidin-2-one]",listed under heading Active RIP1 Inhibitors,[2],Active
"CCC(C)(C)C(=O)N(O)Cc1ccc(F)cc1F [N-(2,4-Difluorobenzyl)-N-hydroxy-2,2-dimethylbutanamide]",listed under heading Active RIP1 Inhibitors,[2],Active
CCOc1ccccc1OCCN[C@H](C)Cc1ccc(OC)c(S(N)(=O)=O)c1 [tamsulosin],anti-inflammatory efficacy,rat EAP model,partial anti-inflammatory efficacy
CCC(C)(C)C(=O)N(O)Cc1ccccc1 [RIPA-56],protection of aged mice from reproductive system aging,aged mice,can protect aged mice from seminal vesicles enlargement
same,TNFα level in the prostate homogenate,TNFα,1.02 ± 0.37 pg/mg
same,prostate index (ratio of prostate gland wet weight/body weight),[1]; 12.5 mg/kg intraperitoneal B.I.D,1.99 ± 0.41 mg/g
same,prostate index (ratio of prostate gland wet weight/body weight),[1]; 25 mg/kg intraperitoneal B.I.D,1.82 ± 0.22 mg/g
same,inhibition to the prostate enlargement and edema,[1]; 12.5 and 25 mg/kg intraperitoneal B.I.D,dose-dependent inhibition
same,inflammatory response in the prostate (histopathology),[3]; RIPA-56 treated rats vs disease-model group,less severe than the disease-model group
same,inflammatory cells in the interstitial space (histopathology),[3]; RIPA-56 treated rats,Only few inflammatory cells
"O=C(c1ccccc1)N1N=CC[C@H]1c1ccccc1 [(S)-phenyl(5-phenyl-4,5-dihydro-1H-pyrazol-1-yl)methanone]",listed under heading Active RIP1 Inhibitors,[2],Active
"COc1ccc(OC)c(CS(=O)(=O)c2nc3c(c(=O)n(C)c(=O)n3C)n2C)c1 [TC13-58, (2,5-dimethoxybenzylsulfonyl)-1,3,7-trimethyl-1H-purine-2,6(3H,7H)-dione]",listed under heading Active MLKL Inhibitors,[2],Active
"Nc1ncnc2occ(-c3ccc(NC(=O)Nc4cc(C(F)(F)F)ccc4F)cc3)c12 [Cpd27, 1-(4-(4-aminofuro[2,3-d]pyrimidin-5-yl)phenyl)-3-(2-fluoro-5-(trifluoromethyl)phenyl)urea]",listed under heading Active RIP1 Inhibitors,[2],Active
"Cn1c(=O)c2c(nc(S(C)(=O)=O)n2C)n(C)c1=O [TC13-4, 1,3,7-trimethyl-8-(methylsulfonyl)-1H-purine-2,6(3H,7H)-dione]",listed under heading Active MLKL Inhibitors,[2],Active
"CC(C)(C)c1nc(-c2cccc(NS(=O)(=O)c3c(F)cccc3F)c2F)c(-c2ccnc(N)n2)s1 [Dabrafenib, N-[3-[5-(2-amino-4-pyrimidinyl)-2-(1,1-dimethylethyl)-4-thiazolyl]-2-fluorophenyl]-2,6-difluoro-benzenesulfonamide]",listed under heading Active RIP3 Inhibitors,[2],Active
"O=C1CCCc2ccc(Br)cc2N1 [8-bromo-4,5-dihydro-1H-benzo[b]azepin-2(3H)-one]",listed under heading Active RIP1 Inhibitors,[2],Active
"CCC(C)(C)C(=O)N(O)Cc1ccc(F)cc1 [N-(4-Fluorobenzyl)-N-hydroxy-2,2-dimethylbutanamide]",listed under heading Active RIP1 Inhibitors,[2],Active
